Here are results for 15 compounds from US20110282056A1, “PROTEIN KINASE INHIBITORS AND USE THEREOF” (priority 2008, published 2011).

Common to all, as to assay type: biochemical
The target of test [1] is T1, VEGFR2 (Homo sapiens, UniProt P35968).
T1 construct: purchased BPS Bioscience; San Diego, Calif; 40301
Nature of the test: VEGFR2 enzyme activity assay (Caliper LC3000 mobility shift). As to conditions: 160 uM ATP (Km), 1 nM VEGFR2, 90 minutes at RT.

The target of test [2] is T2, Flt3 (Homo sapiens, UniProt P36888).
T2 construct: purchased BPS Bioscience; San Diego, Calif; 40225
T2 sequence (P36888 27-993): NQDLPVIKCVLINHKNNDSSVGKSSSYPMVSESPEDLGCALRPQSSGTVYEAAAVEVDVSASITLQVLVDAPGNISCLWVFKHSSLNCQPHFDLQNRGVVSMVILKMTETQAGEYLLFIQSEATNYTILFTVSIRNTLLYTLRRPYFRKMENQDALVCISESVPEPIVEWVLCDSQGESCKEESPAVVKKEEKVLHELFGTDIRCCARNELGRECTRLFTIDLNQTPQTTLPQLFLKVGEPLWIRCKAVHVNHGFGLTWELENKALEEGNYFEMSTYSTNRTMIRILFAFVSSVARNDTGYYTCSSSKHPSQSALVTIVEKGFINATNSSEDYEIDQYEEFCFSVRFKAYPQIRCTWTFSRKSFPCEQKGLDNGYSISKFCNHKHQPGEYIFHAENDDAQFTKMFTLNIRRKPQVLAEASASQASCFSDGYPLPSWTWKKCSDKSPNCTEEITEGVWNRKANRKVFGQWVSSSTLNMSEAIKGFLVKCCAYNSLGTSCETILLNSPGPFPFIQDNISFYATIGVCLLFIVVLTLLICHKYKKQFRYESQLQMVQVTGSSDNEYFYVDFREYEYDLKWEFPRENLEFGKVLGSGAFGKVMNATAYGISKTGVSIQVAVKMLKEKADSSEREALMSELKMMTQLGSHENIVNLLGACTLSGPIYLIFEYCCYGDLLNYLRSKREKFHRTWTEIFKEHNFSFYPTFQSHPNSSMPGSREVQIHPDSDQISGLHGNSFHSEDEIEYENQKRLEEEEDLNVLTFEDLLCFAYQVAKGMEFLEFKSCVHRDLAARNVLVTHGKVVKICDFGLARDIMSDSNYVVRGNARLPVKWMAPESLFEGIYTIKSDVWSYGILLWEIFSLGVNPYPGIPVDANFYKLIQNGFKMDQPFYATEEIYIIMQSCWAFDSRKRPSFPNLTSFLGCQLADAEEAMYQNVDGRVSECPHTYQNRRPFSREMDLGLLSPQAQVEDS
Nature of the test: Flt3 enzyme activity assay (Caliper LC3000 mobility shift). As to conditions: 350 uM ATP (Km), 3 nM Flt3, 90 minutes at RT. A digest of the protocol:
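Flt3 (3 nM) was incubated with 1 uM FITC-labelled peptide substrate and 350 uM ATP (Km) for 90 minutes at RT, then stopped with 10 mM EDTA. Phosphorylated product and substrate were separated by mobility shift on the LC3000, and activity was taken as product/(product+substrate). Inhibition is relative to DMSO.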

Test [3] addresses T3, VEGFR3 (Homo sapiens, UniProt P35916).
T3 construct: purchased Millpore Corp. (Millipore) 14-681
Nature of the test: VEGFR3 enzyme activity assay (Caliper LC3000 mobility shift). To be noted: 400 uM ATP (Km), 0.4 nM VEGFR3, 90 minutes at RT. A digest of the protocol: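 Recombinant VEGFR3 (0.4 nM) phosphorylated 1 µM FITC-labelled peptide in the presence of 400 µM ATP (Km) for 90 min at RT, and the reaction was stopped with 10 mM EDTA. Product and substrate were separated by mobility shift to give conversion, and inhibition was expressed relative to DMSO.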

pIC50: −log10 of the molar value. Some results are limits rather than exact numbers.

T1 sequence (P35968 20-1356): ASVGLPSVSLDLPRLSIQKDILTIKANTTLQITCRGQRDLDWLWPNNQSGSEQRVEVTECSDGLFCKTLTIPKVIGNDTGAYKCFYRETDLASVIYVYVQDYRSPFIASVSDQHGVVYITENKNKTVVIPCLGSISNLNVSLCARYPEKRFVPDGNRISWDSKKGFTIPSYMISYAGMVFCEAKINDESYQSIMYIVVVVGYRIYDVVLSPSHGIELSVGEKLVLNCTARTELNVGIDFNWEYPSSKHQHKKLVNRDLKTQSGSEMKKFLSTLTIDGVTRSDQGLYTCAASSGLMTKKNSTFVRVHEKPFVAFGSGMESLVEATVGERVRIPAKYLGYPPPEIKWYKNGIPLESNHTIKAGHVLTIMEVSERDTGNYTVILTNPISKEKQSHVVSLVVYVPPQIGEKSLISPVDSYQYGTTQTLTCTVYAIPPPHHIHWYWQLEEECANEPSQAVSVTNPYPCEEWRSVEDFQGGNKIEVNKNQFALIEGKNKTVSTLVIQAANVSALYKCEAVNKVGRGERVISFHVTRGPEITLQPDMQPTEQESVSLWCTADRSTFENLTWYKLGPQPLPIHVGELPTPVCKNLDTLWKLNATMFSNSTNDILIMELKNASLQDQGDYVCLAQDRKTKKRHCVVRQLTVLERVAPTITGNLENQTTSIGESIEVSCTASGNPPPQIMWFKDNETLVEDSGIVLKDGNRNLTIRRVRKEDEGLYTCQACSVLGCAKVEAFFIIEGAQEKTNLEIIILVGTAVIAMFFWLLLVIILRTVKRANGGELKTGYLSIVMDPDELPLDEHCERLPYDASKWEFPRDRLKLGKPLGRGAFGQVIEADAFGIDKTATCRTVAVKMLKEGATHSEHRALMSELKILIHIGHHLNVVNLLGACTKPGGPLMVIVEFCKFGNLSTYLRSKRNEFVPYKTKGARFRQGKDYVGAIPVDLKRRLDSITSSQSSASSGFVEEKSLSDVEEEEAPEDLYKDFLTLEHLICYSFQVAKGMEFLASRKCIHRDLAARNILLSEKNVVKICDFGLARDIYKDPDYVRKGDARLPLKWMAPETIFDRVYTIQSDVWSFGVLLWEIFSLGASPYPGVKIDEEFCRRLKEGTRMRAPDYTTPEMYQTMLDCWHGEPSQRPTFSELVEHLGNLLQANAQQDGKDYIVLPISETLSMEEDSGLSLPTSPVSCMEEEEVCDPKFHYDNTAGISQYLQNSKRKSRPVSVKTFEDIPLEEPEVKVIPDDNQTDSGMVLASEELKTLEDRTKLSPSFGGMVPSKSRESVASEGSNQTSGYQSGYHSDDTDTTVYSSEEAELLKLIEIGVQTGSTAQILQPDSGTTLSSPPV
T3 sequence (P35916 25-1363): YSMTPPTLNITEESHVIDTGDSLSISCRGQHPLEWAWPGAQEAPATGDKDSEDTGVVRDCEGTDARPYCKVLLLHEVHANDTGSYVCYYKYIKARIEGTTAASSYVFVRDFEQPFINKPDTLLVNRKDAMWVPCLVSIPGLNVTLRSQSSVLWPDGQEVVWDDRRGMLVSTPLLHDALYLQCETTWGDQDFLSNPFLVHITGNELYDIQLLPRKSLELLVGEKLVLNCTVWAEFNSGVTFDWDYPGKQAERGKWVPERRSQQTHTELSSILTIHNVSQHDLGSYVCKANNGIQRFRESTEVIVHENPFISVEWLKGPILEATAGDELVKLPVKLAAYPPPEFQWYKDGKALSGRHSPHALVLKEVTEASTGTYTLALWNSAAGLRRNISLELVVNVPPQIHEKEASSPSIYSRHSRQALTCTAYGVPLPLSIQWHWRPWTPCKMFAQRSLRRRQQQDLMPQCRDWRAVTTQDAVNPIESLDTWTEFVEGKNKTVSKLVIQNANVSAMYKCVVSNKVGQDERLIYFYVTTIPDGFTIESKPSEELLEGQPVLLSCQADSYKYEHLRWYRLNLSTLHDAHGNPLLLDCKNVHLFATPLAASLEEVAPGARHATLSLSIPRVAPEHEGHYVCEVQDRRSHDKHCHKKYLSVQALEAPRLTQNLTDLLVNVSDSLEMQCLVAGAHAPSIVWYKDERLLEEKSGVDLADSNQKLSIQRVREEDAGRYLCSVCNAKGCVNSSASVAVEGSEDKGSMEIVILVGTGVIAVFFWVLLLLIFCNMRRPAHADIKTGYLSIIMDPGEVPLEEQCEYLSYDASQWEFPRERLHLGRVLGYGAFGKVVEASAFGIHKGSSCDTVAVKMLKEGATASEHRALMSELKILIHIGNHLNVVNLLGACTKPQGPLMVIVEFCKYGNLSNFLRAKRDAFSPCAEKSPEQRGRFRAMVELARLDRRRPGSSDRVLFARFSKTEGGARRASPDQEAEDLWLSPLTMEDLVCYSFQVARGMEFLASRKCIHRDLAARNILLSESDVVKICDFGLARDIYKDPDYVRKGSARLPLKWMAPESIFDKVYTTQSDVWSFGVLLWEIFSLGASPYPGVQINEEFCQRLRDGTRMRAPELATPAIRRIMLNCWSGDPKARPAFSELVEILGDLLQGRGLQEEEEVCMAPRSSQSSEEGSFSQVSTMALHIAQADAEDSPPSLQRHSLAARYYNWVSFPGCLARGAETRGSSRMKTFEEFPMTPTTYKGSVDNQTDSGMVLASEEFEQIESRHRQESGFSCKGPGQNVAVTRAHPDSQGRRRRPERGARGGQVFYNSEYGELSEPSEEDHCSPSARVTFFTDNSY

Regarding `C#Cc1ccc(C#Cc2ccnc3[nH]ccc23)cc1` [compound 95], the negative logarithm of the IC50 (pIC50) in test [1], in test [2] and in test [3] was below 6.00 throughout.
Consider `COC(=O)c1ccc(C#Cc2ccnc3[nH]ccc23)cc1OC` [compound 122], for which the pIC50 in test [1], in test [2] and in test [3] was below 6.00 in each case.
Turning to `COC(=O)c1cccc(C#Cc2ccnc3[nH]ccc23)n1` [compound 106], the pIC50 in test [1], in test [2] and in test [3] was below 6.00 throughout.
Turning to `C(#Cc1ccnc2[nH]ccc12)c1ccc(-c2csnn2)cc1` [compound 136], the pIC50 in test [1], in test [2] and in test [3] was below 6.00 each time.
Turning to `CS(=O)(=O)c1ccc(C#Cc2ccnc3[nH]ccc23)cc1` [compound 81], the negative-log IC50 (pIC50) in test [1], in test [2] and in test [3] was below 6.00 throughout.
`C(#Cc1ccnc2[nH]ccc12)c1cccc(N2CCOCC2)c1` [compound 47]: the pIC50 (usually the IC50 on a negative log10 scale, so that one unit is a factor of ten) in test [1] was below 6.00; in test [2], below 6.00; in test [3] it was 6.00 to 7.00.
Consider `C[Si](C)(C)C#Cc1ncnc2sc3c(c12)CCCC3` [compound 112], for which the pIC50 in test [1], in test [2] and in test [3] was below 6.00 in each case.
As for `C(#Cc1ccnc2[nH]ccc12)c1ccccc1-c1ccccc1` [compound 127], the negative logarithm of the IC50 (pIC50) in test [1], in test [2] and in test [3] was below 6.00 in each case.
For the compound `FC(F)(F)Oc1ccc(C#Cc2ccnc3[nH]ccc23)cc1` [compound 120], the pIC50 in test [1], in test [2] and in test [3] was below 6.00 in each case.
With `C(#Cc1ccnc2[nH]ccc12)c1ccc2c(c1)OCO2` [compound 72], the negative-log IC50 (pIC50) in test [1] was below 6.00; in test [2] it was below 6.00; in test [3] it was 6.00 to 7.00.
Turning to `CN(C)c1ccc(C#Cc2ccnc3[nH]ccc23)cc1` [compound 124], the pIC50 in test [1], in test [2] and in test [3] was below 6.00 throughout.
On to `C(#Cc1ccnc2[nH]ccc12)c1cccnc1` [compound 82], for which the negative-log IC50 (pIC50) in test [1], in test [2] and in test [3] was below 6.00 each time.
As for `CCNC(=O)/C=C/c1cccc(C#Cc2ccnc3[nH]ccc23)c1` [compound 54], the figures for the negative logarithm of the IC50 (pIC50) in test [1], in test [2] and in test [3] were below 6.00, below 6.00 and 6.00 to 7.00, respectively.
Turning to `C(#Cc1ccnc2[nH]ccc12)c1ccc(-c2nnc(-c3ccccc3)o2)cc1` [compound 131], the negative logarithm of the IC50 (pIC50) in test [1], in test [2] and in test [3] was below 6.00 in each case.
Consider `COC(=O)c1ccccc1C#Cc1ccnc2[nH]ccc12` [compound 43], for which the pIC50 in test [1] was below 6.00; in test [2], 6.00 to 7.00; in test [3], 6.00 to 7.00.
